Data on one substance can be found in article PMC2225439, “Amyloid as a Depot for the Formulation of Long-Acting Drugs” (PLoS Biology, 2008).

The nature of one data set: Congo red (CR) binding. It counts as physicochemical. Set-up: key to Congo Red: b, binding; n, not binding. As to conditions: analogs incubated for 30 d, 1 mg/ml in 5% D-mannitol, 0.01% sodium azide, room temperature; UV 300–700 nm and by eye; three independent experiments. The protocol: To confirm amyloid formation by GnRH analogs, CR binding was measured. CR, like Thio T, is a dye routinely used to detect β-sheet–rich assemblies. CR binding can be measured by the “red shift” change of its absorption maximum from 490 to 540 nm, by an increase of the dye's molar absorptivity, and in favorable cases by eye. All three types of measurements were performed with GnRH analogs incubated for 30 d. […] However, five short-acting GnRH analogs, i.e., S3, S4, S6, S10, and S11, bind CR, showing that some short-acting GnRH-analogs are able to form amyloids after prolonged incubation (see also below). In contrast to short-acting analogs, all long-acting analogs bind CR.
GnRH analogs were dissolved in a glass tube in 1 ml of 5% D-mannitol and 0.01% sodium azide at a concentration of 1 mg/ml. The GnRH analogs were then incubated at room temperature without stirring. The fibril formation was monitored by EM, CR, and time-resolved by Thio T binding studies. Three independent experiments were performed for each sample.
A 5-μl aliquot of peptide sample was mixed with 80 μl of PBS buffer containing 10% ethanol. Then 15 μl of a 100 μM CR solution (filtered through 0.2-μm filter) in PBS containing 10% ethanol was added. After mixing, UV was measured from 300–700 nm. For the measurement of the CR-only spectrum, 15 μl of CR solution with 85 μl of PBS containing 10% ethanol was prepared. As a control, a 5-μl aliquot of GnRH analog mixed with 95 μl of PBS containing 10% ethanol was measured. Three independent experiments were performed for each sample. In addition to the UV measurements, pictures of the cuvette containing the peptide sample and CR were taken to visually show the CR binding to the amyloids.

In another data set the target is T1, wild-type GnRH (Homo sapiens, UniProt P01148).
T1 construct: gonadotropin-releasing hormone (GnRH); made in house; host or cells: chemical solid-phase synthesis (no expression host)
The data set can be described thus: Seeding of wild-type GnRH by L20 fibrils. As to conditions: matured fibrils 5% v/v with GnRH solution 95% v/v, 5% D-mannitol, room temperature without stirring, 1 mo; Thio T and EM. From the text:
Another concern for the application of amyloids in the formulation of long-acting drugs is the potential multiplication and spread of amyloids through seeding. Only a small amount of fibrillar seed is needed to induce and accelerate self-polymerization in the presence of monomeric amyloid protein/peptide. Within the context of GnRH, perhaps amyloids of the injected GnRH analogs may act as the seeds and the host GnRH as the reservoir of the free monomer. To mimic this situation in vitro, a seeding reaction was set up with a small amount of matured, long-acting L20 fibrils (5% v/v) in presence of a solution of wild-type GnRH (95% v/v). […]
A total of 5 μl of matured L20 fibril solution at a concentration of 1 mg/ml in 5% D-mannitol, 0.01% sodium azide was mixed with 95 μl of freshly prepared GnRH solution in the same solution condition followed by incubation at room temperature without stirring. […] Once a week, a 10-μl aliquot was diluted into 500 μl water containing 5% D-mannitol, 0.01% sodium azide, and 10 μl of 1 mM Thio T to measure the Thio T fluorescence as described above. […] The protein concentration of the supernatant was measured by UV absorbance with ɛ280 of 6,500 M^−1cm^−1. […] The formation of amyloid was monitored regularly for the mixture (α-Syn+L20) and α-Syn by Thio T binding.

On to “Ac-DNal-DCpa-Agl(Nic)-Ser-Aph(Ac)-DAph(Ac)-Leu-ILys-Pro-DAla-NH2 [L20]”, for which, in the data set “Congo red (CR) binding”, the “Congo Red” value is recorded as “b”. In addition, the “seeding of wild-type GnRH” value on wild-type GnRH is given as “unable to seed wild-type GnRH”.
